In patent US9738634B2, “Heterocyclic amide compound and herbicide” (SYNGENTA PARTICIPATIONS AG, priority 2013, dated 2017):

How the values were obtained:
Assay type in all cases: in vivo
[1] = test system: transplanted rice; assay: Test Example 1: preemergent weed treatment in the submerged state, effect on crop; a: transplanted rice; conditions: treatment dosage 252 g/ha
Method in brief: (§1)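 Submerged pre-emergence treatment, water-surface application of compound emulsion at g/ha dosages; 4 cm flooded alluvial soil, weeds sown and 2.5-leaf rice transplanted same day. Rated after 3 weeks, greenhouse.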

[2] = test system: beet; assay: Test Example 4: foliar treatment, effect on crop; f: beet; conditions: treatment dosage 315 g/ha
Method in brief: (§2)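 Seeds are spot-sown into sterilized diluvial soil and covered with about 1.5 cm of soil. After 14 days' greenhouse growth at 25 to 30° C, plants are sprayed on stems and leaves with diluted emulsion at the stated g/ha rate, then scored at 3 weeks.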

[3] = test system: green foxtail; assay: Test Example 4: weedkilling efficacy by foliar treatment; E: green foxtail; conditions: treatment dosage 315 g/ha
Method in brief: as §2

[4] = test system: Indian mallow; assay: Test Example 3: weedkilling efficacy through soil treatment; K: Indian mallow; conditions: treatment dosage 315 g/ha
Method in brief: (§3)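 Crop and weed responses were judged three weeks after a uniform surface spray of the water-diluted emulsion at the given g/ha rate. Seeds sat beneath about 1.5 cm of sterilized diluvial soil, and boxes stood in a greenhouse at 25 to 30° C.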

[5] = test system: Italian ryegrass; assay: Test Example 4: weedkilling efficacy by foliar treatment; I: Italian ryegrass; conditions: treatment dosage 315 g/ha
Method in brief: as §2

[6] = test system: soybean; assay: Test Example 3: soil treatment, effect on crop; d: soybean; conditions: treatment dosage 315 g/ha
Method in brief: as §3

[7] = test system: fig-leafed goosefoot; assay: Test Example 4: weedkilling efficacy by foliar treatment; M: fig-leafed goosefoot; conditions: treatment dosage 315 g/ha
Method in brief: as §2

[8] = test system: black-grass; assay: Test Example 4: weedkilling efficacy by foliar treatment; H: black-grass; conditions: treatment dosage 315 g/ha
Method in brief: as §2

[9] = test system: redroot pigweed; assay: Test Example 3: weedkilling efficacy through soil treatment; L: redroot pigweed; conditions: treatment dosage 315 g/ha
Method in brief: as §3

[10] = test system: corn; assay: Test Example 4: foliar treatment, effect on crop; c: corn; conditions: treatment dosage 315 g/ha
Method in brief: as §2

[11] = test system: crabgrass; assay: Test Example 3: weedkilling efficacy through soil treatment; D: crabgrass; conditions: treatment dosage 315 g/ha
Method in brief: as §3

[12] = test system: oval-leafed pondweed; assay: Test Example 2: weedkilling efficacy, growth period weed treatment in the submerged state; C: oval-leafed pondweed; conditions: treatment dosage 252 g/ha
Method in brief: (§4)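 Seedlings at 1-2 leaves in 4 cm-deep submerged alluvial soil received emulsion formulations on the water surface, dosed per hectare; effects were judged 3 weeks on.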

[13] = test system: directly sown rice; assay: Test Example 3: soil treatment, effect on crop; b: directly sown rice; conditions: treatment dosage 315 g/ha
Method in brief: as §3

[14] = test system: redroot pigweed; assay: Test Example 4: weedkilling efficacy by foliar treatment; L: redroot pigweed; conditions: treatment dosage 315 g/ha
Method in brief: as §2

[15] = test system: corn; assay: Test Example 3: soil treatment, effect on crop; c: corn; conditions: treatment dosage 315 g/ha
Method in brief: as §3

[16] = test system: crabgrass; assay: Test Example 4: weedkilling efficacy by foliar treatment; D: crabgrass; conditions: treatment dosage 315 g/ha
Method in brief: as §2

[17] = test system: beet; assay: Test Example 3: soil treatment, effect on crop; f: beet; conditions: treatment dosage 315 g/ha
Method in brief: as §3

[18] = test system: catchweed; assay: Test Example 3: weedkilling efficacy through soil treatment; O: catchweed; conditions: treatment dosage 315 g/ha
Method in brief: as §3

[19] = test system: barnyard grass; assay: Test Example 2: weedkilling efficacy, growth period weed treatment in the submerged state; A: barnyard grass; conditions: treatment dosage 252 g/ha
Method in brief: as §4

[20] = test system: catchweed; assay: Test Example 4: weedkilling efficacy by foliar treatment; O: catchweed; conditions: treatment dosage 315 g/ha
Method in brief: as §2

[21] = test system: wild oat; assay: Test Example 4: weedkilling efficacy by foliar treatment; G: wild oat; conditions: treatment dosage 315 g/ha
Method in brief: as §2

[22] = test system: chickweed; assay: Test Example 4: weedkilling efficacy by foliar treatment; N: chickweed; conditions: treatment dosage 315 g/ha
Method in brief: as §2

[23] = test system: barnyard grass; assay: Test Example 1: weedkilling efficacy, preemergent weed treatment in the submerged state; A: barnyard grass; conditions: treatment dosage 252 g/ha
Method in brief: as §1

[24] = test system: birds-eye speedwell; assay: Test Example 3: weedkilling efficacy through soil treatment; p: birds-eye speedwell; conditions: treatment dosage 315 g/ha
Method in brief: as §3

[25] = test system: Italian ryegrass; assay: Test Example 3: weedkilling efficacy through soil treatment; I: Italian ryegrass; conditions: treatment dosage 315 g/ha
Method in brief: as §3

[26] = test system: bulrush; assay: Test Example 2: weedkilling efficacy, growth period weed treatment in the submerged state; B: bulrush; conditions: treatment dosage 252 g/ha
Method in brief: as §4

[27] = test system: black-grass; assay: Test Example 3: weedkilling efficacy through soil treatment; H: black-grass; conditions: treatment dosage 315 g/ha
Method in brief: as §3

[28] = test system: green foxtail; assay: Test Example 3: weedkilling efficacy through soil treatment; E: green foxtail; conditions: treatment dosage 315 g/ha
Method in brief: as §3

[29] = test system: wild oat; assay: Test Example 3: weedkilling efficacy through soil treatment; G: wild oat; conditions: treatment dosage 315 g/ha
Method in brief: as §3

[30] = test system: Indian mallow; assay: Test Example 4: weedkilling efficacy by foliar treatment; K: Indian mallow; conditions: treatment dosage 315 g/ha
Method in brief: as §2

[31] = test system: directly sown rice; assay: Test Example 4: foliar treatment, effect on crop; b: directly sown rice; conditions: treatment dosage 315 g/ha
Method in brief: as §2

[32] = test system: oval-leafed pondweed; assay: Test Example 1: weedkilling efficacy, preemergent weed treatment in the submerged state; C: oval-leafed pondweed; conditions: treatment dosage 252 g/ha
Method in brief: as §1

[33] = test system: wheat; assay: Test Example 3: soil treatment, effect on crop; e: wheat; conditions: treatment dosage 315 g/ha
Method in brief: as §3

[34] = test system: soybean; assay: Test Example 4: foliar treatment, effect on crop; d: soybean; conditions: treatment dosage 315 g/ha
Method in brief: as §2

[35] = test system: bulrush; assay: Test Example 1: weedkilling efficacy, preemergent weed treatment in the submerged state; B: bulrush; conditions: treatment dosage 252 g/ha
Method in brief: as §1

[36] = test system: wheat; assay: Test Example 4: foliar treatment, effect on crop; e: wheat; conditions: treatment dosage 315 g/ha
Method in brief: as §2

[37] = test system: fig-leafed goosefoot; assay: Test Example 3: weedkilling efficacy through soil treatment; M: fig-leafed goosefoot; conditions: treatment dosage 315 g/ha
Method in brief: as §3

[38] = test system: birds-eye speedwell; assay: Test Example 4: weedkilling efficacy by foliar treatment; p: birds-eye speedwell; conditions: treatment dosage 315 g/ha
Method in brief: as §2

[39] = test system: chickweed; assay: Test Example 3: weedkilling efficacy through soil treatment; N: chickweed; conditions: treatment dosage 315 g/ha
Method in brief: as §3

CC1=C(c2cccnc2F)C(=O)N(C(C)(C)C(=O)Nc2cc(Br)ccn2)CO1 [B-2-09]
a (transplanted rice) effect on crop grade [1]: 1 (weed kill ratio 5% or more, less than 20%) | f (beet) effect on crop grade [2]: 1 (weed kill ratio 5% or more, less than 20%) | E (green foxtail) weedkilling efficacy grade [3]: 5 (weed kill ratio 90% or more, (practically complete withering)) | K (Indian mallow) weedkilling efficacy grade [4]: 0 (weed kill ratio 5% or less (practically no effect)) | I (Italian ryegrass) weedkilling efficacy grade [5]: 4 (weed kill ratio 70% or more, less than 90%) | d (soybean) effect on crop grade [6]: 0 (weed kill ratio 5% or less (practically no effect)) | M (fig-leafed goosefoot) weedkilling efficacy grade [7]: 4 (weed kill ratio 70% or more, less than 90%) | H (black-grass) weedkilling efficacy grade [8]: 4 (weed kill ratio 70% or more, less than 90%) | L (redroot pigweed) weedkilling efficacy grade [9]: 0 (weed kill ratio 5% or less (practically no effect)) | c (corn) effect on crop grade [10]: 0 (weed kill ratio 5% or less (practically no effect)) | D (crabgrass) weedkilling efficacy grade [11]: 5 (weed kill ratio 90% or more, (practically complete withering)) | C (oval-leafed pondweed) weedkilling efficacy grade [12]: 3 (weed kill ratio 40% or more, less than 70%) | b (directly sown rice) effect on crop grade [13]: 3 (weed kill ratio 40% or more, less than 70%) | L (redroot pigweed) weedkilling efficacy grade [14]: 0 (weed kill ratio 5% or less (practically no effect)) | c (corn) effect on crop grade [15]: 0 (weed kill ratio 5% or less (practically no effect)) | D (crabgrass) weedkilling efficacy grade [16]: 5 (weed kill ratio 90% or more, (practically complete withering)) | f (beet) effect on crop grade [17]: 1 (weed kill ratio 5% or more, less than 20%) | O (catchweed) weedkilling efficacy grade [18]: 3 (weed kill ratio 40% or more, less than 70%) | A (barnyard grass) weedkilling efficacy grade [19]: 4 (weed kill ratio 70% or more, less than 90%) | O (catchweed) weedkilling efficacy grade [20]: 1 (weed kill ratio 5% or more, less than 20%) | G (wild oat) weedkilling efficacy grade [21]: 0 (weed kill ratio 5% or less (practically no effect)) | N (chickweed) weedkilling efficacy grade [22]: 3 (weed kill ratio 40% or more, less than 70%) | A (barnyard grass) weedkilling efficacy grade [23]: 5 (weed kill ratio 90% or more, (practically complete withering)) | P (birds-eye speedwell) weedkilling efficacy grade [24]: 4 (weed kill ratio 70% or more, less than 90%) | I (Italian ryegrass) weedkilling efficacy grade [25]: 5 (weed kill ratio 90% or more, (practically complete withering)) | B (bulrush) weedkilling efficacy grade [26]: 5 (weed kill ratio 90% or more, (practically complete withering)) | H (black-grass) weedkilling efficacy grade [27]: 4 (weed kill ratio 70% or more, less than 90%) | E (green foxtail) weedkilling efficacy grade [28]: 5 (weed kill ratio 90% or more, (practically complete withering)) | G (wild oat) weedkilling efficacy grade [29]: 3 (weed kill ratio 40% or more, less than 70%) | K (Indian mallow) weedkilling efficacy grade [30]: 0 (weed kill ratio 5% or less (practically no effect)) | b (directly sown rice) effect on crop grade [31]: 5 (weed kill ratio 90% or more, (practically complete withering)) | C (oval-leafed pondweed) weedkilling efficacy grade [32]: 5 (weed kill ratio 90% or more, (practically complete withering)) | e (wheat) effect on crop grade [33]: 0 (weed kill ratio 5% or less (practically no effect)) | d (soybean) effect on crop grade [34]: 0 (weed kill ratio 5% or less (practically no effect)) | B (bulrush) weedkilling efficacy grade [35]: 5 (weed kill ratio 90% or more, (practically complete withering)) | e (wheat) effect on crop grade [36]: 0 (weed kill ratio 5% or less (practically no effect)) | M (fig-leafed goosefoot) weedkilling efficacy grade [37]: 3 (weed kill ratio 40% or more, less than 70%) | P (birds-eye speedwell) weedkilling efficacy grade [38]: 4 (weed kill ratio 70% or more, less than 90%) | N (chickweed) weedkilling efficacy grade [39]: 2 (weed kill ratio 20% or more, less than 40%)
